Data reported in paper PMC3295651, “Delineation of the Pasteurellaceae-specific GbpA-family of glutathione-binding proteins” (BMC Biochemistry, 2011).

Assays:
Test in all cases: Thermofluor thermal shift (Sypro orange)
Assay type in all cases: binding
GbpAHi = molecular target: T1, GbpAHi (Haemophilus influenzae, UniProt P33950)
T1 construct: gene hbpA; soluble non-lipidated form; leader replaced by PelB; his-tag
Text: Thermofluor thermal shift (Sypro orange) on GbpAHi

hbpA = molecular target: T2, hbpA (Actinobacillus pleuropneumoniae, UniProt A3N3U8, C22M); details: read-out: GbpAAp
T2 construct: soluble non-lipidated form; mature start at position 22; C-terminal his-tag; E. coli, pET20b
Text: Thermofluor thermal shift (Sypro orange) on GbpAAp

GbpAHp = molecular target: T3, GbpAHp (Glaesserella parasuis, UniProt B8F653)
T3 construct: gene hbpA; non-lipoprotein; leader replaced by PelB; his-tag
T3 sequence (B8F653 23-531): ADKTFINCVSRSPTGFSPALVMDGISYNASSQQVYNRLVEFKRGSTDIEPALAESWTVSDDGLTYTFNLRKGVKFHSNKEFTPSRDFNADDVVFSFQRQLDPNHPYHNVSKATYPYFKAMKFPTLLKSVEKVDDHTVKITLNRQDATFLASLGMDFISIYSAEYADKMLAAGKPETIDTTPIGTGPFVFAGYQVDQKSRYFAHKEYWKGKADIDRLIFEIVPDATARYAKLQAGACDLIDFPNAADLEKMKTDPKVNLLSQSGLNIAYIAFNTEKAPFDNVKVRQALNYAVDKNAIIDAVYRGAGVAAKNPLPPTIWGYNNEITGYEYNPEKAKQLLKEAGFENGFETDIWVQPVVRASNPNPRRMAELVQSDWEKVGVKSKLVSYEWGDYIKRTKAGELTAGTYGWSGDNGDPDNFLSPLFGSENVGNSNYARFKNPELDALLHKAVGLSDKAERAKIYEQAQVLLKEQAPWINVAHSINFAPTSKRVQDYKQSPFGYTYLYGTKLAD
Text: Thermofluor thermal shift (Sypro orange) on GbpAHp

T1 sequence (P33950 19-547): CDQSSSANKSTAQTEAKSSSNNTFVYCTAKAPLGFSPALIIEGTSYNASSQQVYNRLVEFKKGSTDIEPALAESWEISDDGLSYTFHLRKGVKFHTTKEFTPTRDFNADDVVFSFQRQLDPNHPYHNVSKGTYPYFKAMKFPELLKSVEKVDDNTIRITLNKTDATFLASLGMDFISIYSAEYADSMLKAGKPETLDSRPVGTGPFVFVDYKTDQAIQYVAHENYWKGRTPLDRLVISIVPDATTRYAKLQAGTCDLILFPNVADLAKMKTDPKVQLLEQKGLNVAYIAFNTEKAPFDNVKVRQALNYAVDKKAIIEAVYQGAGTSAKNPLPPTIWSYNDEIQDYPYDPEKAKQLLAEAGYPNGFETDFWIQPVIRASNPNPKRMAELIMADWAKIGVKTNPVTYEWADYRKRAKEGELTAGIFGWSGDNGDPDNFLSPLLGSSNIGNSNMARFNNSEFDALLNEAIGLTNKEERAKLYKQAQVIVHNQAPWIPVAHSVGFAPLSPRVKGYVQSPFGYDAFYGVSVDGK
T2 sequence (A3N3U8 22-545 C22M): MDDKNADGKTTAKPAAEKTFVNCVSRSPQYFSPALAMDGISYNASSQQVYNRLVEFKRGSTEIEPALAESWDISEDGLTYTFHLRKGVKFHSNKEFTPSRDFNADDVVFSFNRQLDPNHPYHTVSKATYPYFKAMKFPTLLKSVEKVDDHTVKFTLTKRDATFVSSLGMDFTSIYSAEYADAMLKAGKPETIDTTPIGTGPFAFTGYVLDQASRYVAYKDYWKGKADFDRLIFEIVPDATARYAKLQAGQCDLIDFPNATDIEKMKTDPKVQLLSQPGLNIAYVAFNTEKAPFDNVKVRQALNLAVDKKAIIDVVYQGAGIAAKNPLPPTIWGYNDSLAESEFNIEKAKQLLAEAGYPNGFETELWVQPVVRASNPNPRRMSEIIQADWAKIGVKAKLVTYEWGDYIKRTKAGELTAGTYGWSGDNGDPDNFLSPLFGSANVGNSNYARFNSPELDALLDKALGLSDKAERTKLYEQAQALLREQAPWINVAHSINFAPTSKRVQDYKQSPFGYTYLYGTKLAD

| Structure (SMILES) | ΔTm at 1000 µM (GbpAHi) [°C] | ΔTm at 1000 µM (hbpA) [°C] | ΔTm at 1000 µM (GbpAHp) [°C] |
| --- | --- | --- | --- |
| N[C@@H](CCC(=O)N[C@@H](CS)C(=O)NCC(=O)O)C(=O)O [GSH] | 12.5 |  |  |
| CSC[C@H](NC(=O)CC[C@H](N)C(=O)O)C(=O)NCC(=O)O [S-methylglutathione] | 10.5 |  |  |
| N[C@@H](CCC(=O)N[C@@H](CSN=O)C(=O)NCC(=O)O)C(=O)O [S-nitrosoglutathione] | 7 | 6.5 | 9.5 |
| N[C@@H](CCC(=O)N[C@@H](CSSC[C@H](N)C(=O)O)C(=O)NCC(=O)O)C(=O)O [glutathione cysteine disulfide] | 10 | 6 | 7 |
